Source: patent US4873346A, “Substituted benzothiazoles, benzimidazoles, and benzoxazoles” (The Upjohn Company, priority 1985, dated 1989)
Counter-ions that a name gives are not always drawn.

What was measured:
mucus secretion = test: canine tracheal secretion model (inhibitory effect on mucus secretion); type: in vivo
Description: Several of the compounds of the present invention were also tested for their inhibitory effect on mucus secretion in the canine tracheal secretion model.

lipoxygenase = lipoxygenase inhibition, oxygen uptake of washed human platelets after arachidonic acid; type: cell-based
Description: Some ot the compounds of the present invention were also tested for lipoxygenase inhibition. Arachidonic acid is added to washed human platelets and the oxygen uptake is measured using oxygraph cells. A decrease of oxygen uptake versus the control cell indicates inhibition of lipoxygenase. For a full description of the procedure see, Wallach, et al., Biochim, Biophys. Acta. 231:445 (1976).

SRS-A formation = test: SRS-A inhibition in rat mononuclear cells challenged with calcium ionophore; type: cell-based; conditions: cysteine
Description: This test is conducted in rat mononuclear cells incubated in the presence of cysteine and challenged with a calcium ionophore (which induces SRS-A formation).

Compound	inhibition of mucus secretion (in words) (mucus secretion)	further results
CCN(CC)CCCNc1nc2ccc(O)cc2s1 [2-[[3-(Diethylamino)propyl]amino]-6-benzothiazolol, hydroquinone dihydrochloride salt]	caused inhibition	–
C=CCCCCSc1nc2ccc(O)cc2s1.O=C(O)/C=C\C(=O)O [2-(5-hexenylthio)-6-benzothiazolol maleic acid salt]	caused inhibition	–
COC(=O)CCCCCNc1nc2ccc(O)cc2s1 [6-[(6-hydroxy-2-benzothiazolyl)aminohexanoic acid methyl ester]	–	inhibition on Indomethacin blocked/Arachidonic Acid (AA) induced mucus secretion (mucus secretion; Indomethacin blocked/AA induced): 100%; inhibition on baseline mucus secretion (mucus secretion; baseline): 21.8%; inhibition on hypoxia mucus secretion (mucus secretion; hypoxia): 63.4%
CCN(CC)CCCNc1nc2ccc(O)cc2s1.Cl.Cl [2-[[3-(Diethylamino)propyl]amino]-6-benzothiazolol Dihydrochloride]	caused inhibition	–
C=CCNc1nc2ccc(O)cc2s1 [2-(2-propenylamino)-6-benzothiazolol, 2-(2-Propenylamino)-6-benzothiazolol]	caused inhibition of mucus secretion	inhibition of the lipoxygenase system (in words) (lipoxygenase): active; inhibition of the leukotriene system (in words) (SRS-A formation): active
C=CCCCCSc1nc2ccc(O)cc2[nH]1 [2-(5-hexenylthio)-H-benzimidazol-6-ol, 2-(5-Hexenylthio)-1H-benzimidazol-6-ol]	caused inhibition	–
COC(=O)CCCCCSc1nc2ccc(NC(=O)CCC(=O)O)cc2s1 [6-[[6-[(3-Carboxy-1-oxopropyl)amino]-2-benzothiazolyl]thio]hexanoic acid methyl ester, tromethamine salt]	caused inhibition	–
